Values of other authors as cited in US20220112625A1, “Diagnosing and Treating Neurological and Autoimmune Diseases by Optimizing Metabolic Responses” (priority 2017, published 2022).
Blank lines part the entries; values can stand above or below the molecule they belong to.

Columns and labels:
[1] = tested on: class I and class II PI3Ks
mTOR = mTOR (Homo sapiens, UniProt P42345); conditions: up to at least about 10 μM
PI3Kα = PI3Kα (Homo sapiens, UniProt P42336); conditions: PI3Kγ versus PI3Kα
PI3Kδ = PI3Kδ (Homo sapiens, UniProt O00329); conditions: PI3Kγ versus PI3Kδ
Chain of PI3Kδ (O00329 whole entry, species assumed): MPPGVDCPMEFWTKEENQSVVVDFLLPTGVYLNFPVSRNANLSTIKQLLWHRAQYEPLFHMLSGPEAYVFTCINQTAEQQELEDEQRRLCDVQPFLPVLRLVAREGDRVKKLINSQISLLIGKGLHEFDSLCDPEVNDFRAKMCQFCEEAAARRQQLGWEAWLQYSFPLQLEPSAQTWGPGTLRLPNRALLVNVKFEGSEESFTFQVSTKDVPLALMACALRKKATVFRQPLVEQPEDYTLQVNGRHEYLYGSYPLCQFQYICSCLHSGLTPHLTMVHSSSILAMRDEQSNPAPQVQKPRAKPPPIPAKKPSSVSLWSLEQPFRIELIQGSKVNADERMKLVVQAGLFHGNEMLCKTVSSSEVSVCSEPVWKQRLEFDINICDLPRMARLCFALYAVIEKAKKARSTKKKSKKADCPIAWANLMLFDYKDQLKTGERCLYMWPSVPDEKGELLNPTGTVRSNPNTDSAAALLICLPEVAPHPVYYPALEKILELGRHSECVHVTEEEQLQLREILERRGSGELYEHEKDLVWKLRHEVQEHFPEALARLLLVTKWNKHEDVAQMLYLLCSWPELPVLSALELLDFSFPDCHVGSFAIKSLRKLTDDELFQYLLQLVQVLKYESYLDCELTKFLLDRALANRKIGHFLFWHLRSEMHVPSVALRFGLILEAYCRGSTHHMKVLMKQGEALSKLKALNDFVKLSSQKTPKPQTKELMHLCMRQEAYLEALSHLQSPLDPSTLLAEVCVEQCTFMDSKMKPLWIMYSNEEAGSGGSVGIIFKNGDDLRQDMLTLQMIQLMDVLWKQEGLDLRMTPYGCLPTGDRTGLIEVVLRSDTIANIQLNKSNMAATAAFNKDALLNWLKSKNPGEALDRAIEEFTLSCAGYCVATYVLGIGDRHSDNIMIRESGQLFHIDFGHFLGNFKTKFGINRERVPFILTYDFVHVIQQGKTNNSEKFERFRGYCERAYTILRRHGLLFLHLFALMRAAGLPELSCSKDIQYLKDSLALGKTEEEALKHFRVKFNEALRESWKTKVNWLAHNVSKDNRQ
Chain of PI3Kδ (P27986 whole entry partner, species assumed): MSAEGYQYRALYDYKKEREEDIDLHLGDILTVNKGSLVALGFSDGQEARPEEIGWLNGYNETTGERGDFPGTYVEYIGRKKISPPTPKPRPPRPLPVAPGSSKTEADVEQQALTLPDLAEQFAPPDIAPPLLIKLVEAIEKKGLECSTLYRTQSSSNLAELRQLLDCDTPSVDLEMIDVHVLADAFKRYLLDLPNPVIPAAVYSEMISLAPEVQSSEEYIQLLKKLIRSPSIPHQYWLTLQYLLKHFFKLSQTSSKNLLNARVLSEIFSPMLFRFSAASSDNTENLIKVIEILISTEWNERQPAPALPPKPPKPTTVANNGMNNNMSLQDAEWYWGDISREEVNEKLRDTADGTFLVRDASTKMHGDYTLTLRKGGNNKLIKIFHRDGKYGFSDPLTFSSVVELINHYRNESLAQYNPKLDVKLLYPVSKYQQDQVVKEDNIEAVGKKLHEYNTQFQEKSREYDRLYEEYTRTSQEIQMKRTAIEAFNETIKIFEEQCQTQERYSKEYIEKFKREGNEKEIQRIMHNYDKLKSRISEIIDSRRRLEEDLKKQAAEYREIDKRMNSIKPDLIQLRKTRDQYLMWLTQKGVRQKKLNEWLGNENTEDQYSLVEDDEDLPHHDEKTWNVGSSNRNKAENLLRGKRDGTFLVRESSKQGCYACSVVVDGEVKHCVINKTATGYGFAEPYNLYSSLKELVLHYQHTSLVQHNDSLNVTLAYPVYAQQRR

PI3Kβ = PI3Kβ (Homo sapiens, UniProt P42338); conditions: PI3Kγ versus PI3Kβ
Chain of PI3Kβ (P42338 whole entry, species assumed): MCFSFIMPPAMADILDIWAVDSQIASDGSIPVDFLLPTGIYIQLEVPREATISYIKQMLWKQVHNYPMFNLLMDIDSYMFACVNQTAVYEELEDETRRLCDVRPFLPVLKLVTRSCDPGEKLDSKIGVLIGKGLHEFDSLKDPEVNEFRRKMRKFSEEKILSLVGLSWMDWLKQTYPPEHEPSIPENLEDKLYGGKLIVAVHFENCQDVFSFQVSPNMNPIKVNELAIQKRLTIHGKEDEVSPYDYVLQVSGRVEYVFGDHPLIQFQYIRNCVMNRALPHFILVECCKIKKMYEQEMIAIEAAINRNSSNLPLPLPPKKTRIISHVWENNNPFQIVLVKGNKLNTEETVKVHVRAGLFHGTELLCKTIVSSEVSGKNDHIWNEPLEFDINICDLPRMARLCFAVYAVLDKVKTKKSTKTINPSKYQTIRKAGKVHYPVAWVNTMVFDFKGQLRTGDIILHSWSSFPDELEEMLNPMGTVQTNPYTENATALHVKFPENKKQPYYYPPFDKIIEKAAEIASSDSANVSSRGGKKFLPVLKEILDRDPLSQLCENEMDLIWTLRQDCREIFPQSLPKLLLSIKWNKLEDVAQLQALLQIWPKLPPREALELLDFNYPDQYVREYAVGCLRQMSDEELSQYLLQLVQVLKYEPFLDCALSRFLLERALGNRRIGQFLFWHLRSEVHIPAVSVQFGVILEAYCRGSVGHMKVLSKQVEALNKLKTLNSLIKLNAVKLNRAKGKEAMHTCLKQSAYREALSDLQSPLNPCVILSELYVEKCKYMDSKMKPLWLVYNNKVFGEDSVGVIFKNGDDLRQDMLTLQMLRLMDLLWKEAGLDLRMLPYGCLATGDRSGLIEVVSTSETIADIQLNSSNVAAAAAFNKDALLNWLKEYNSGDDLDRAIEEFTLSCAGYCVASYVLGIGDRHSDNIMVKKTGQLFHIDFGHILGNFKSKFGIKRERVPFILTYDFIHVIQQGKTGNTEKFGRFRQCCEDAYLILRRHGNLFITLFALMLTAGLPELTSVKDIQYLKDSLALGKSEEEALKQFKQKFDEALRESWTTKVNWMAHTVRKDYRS
Chain of PI3Kβ (P27986 whole entry partner, species assumed): as the sequence (P27986 whole entry partner, species assumed) above

Chain of PI3Kα (P42336 whole entry, species assumed): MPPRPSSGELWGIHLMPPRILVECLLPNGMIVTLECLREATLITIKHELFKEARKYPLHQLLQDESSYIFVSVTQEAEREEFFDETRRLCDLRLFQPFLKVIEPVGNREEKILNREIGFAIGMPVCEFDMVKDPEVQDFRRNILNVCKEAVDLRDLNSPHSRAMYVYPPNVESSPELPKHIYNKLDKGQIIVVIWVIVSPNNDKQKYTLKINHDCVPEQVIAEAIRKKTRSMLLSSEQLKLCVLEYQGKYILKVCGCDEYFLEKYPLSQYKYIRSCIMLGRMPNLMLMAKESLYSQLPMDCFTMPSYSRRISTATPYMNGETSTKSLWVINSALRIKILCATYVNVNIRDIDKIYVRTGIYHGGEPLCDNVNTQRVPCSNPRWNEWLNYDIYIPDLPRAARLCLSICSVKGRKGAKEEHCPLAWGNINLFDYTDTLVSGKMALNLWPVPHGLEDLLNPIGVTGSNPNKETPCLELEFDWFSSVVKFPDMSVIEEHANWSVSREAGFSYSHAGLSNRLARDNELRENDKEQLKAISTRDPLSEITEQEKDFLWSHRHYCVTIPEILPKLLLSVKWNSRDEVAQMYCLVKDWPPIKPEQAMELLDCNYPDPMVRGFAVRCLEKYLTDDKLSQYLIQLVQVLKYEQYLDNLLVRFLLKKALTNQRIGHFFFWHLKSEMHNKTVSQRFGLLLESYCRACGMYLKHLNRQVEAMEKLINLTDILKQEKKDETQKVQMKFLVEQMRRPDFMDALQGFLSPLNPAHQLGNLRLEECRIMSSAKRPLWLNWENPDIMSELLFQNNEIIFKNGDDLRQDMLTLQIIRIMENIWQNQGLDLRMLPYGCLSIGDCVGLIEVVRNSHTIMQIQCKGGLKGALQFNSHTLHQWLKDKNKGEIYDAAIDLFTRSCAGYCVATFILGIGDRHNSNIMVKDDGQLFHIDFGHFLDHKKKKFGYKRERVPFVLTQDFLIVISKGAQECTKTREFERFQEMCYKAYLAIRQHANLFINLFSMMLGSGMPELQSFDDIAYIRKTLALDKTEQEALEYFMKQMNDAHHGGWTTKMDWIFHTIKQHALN
Chain of PI3Kα (P27986 whole entry partner, species assumed): as the sequence (P27986 whole entry partner, species assumed) above

Compound: CC(C)(O)CNc1ncc(-c2ccnc(Nc3ccnc(Cl)c3)n2)c(CC2CC2)n1 [VPS34-IN1, 1-[[2-[(2-chloro-4-pyridinyl)amino]-4′-(cyclopropylmethyl)[4,5′-bipyrimidin]-2′-yl]amino]-2-methyl-2-Propanol]
inhibition of the isoforms of class I as well as class II PI3Ks [1]: does not significantly inhibit

effect on mTOR (mTOR): no effect
Compound: C[C@@H]1COCCN1c1cc(=O)n2c(n1)N(Cc1cncc(Cl)c1)[C@H](C(F)(F)F)CC2 [SAR405, (8S)-9-[(5-chloro-3-pyridinyl)methyl]-6,7,8,9-tetrahydro-2-[(3R)-3-methyl-4-morpholinyl]-8-(trifluoromethyl)-4H-pyrimido[1,2-a]pyrimidin-4-one]
effect on class I and class II PI3Ks ([1]; up to at least about 10 μM): no effect

selectivity over PI3Kα (PI3Kα): > 100 fold
selectivity over PI3Kδ (PI3Kδ): > 100 fold
selectivity over PI3Kβ (PI3Kβ): 10 fold
Compound: CC(C)(C)NS(=O)(=O)c1cncc(-c2cc(F)c3nc(N)nn3c2)c1 [CZC24832, 5-(2-amino-8-fluoro [1,2,4]triazolo[1,5-a]pyridin-6-yl)-N-(1,1-dimethylethyl)-3-pyridinesulfonamide]
